# Patent US20240217952A1, “TREATMENT OF GRAFT-VERSUS-HOST DISEASE WITH INHIBITORS OF BET FAMILY BDII BROMODOMAIN” (POSEIDON INNOVATION 1, INC., priority 2022, published 2024)
# Legend:
# [1] = tested on: GVHD; settings: allogeneic animals compared with allogeneic control recipients; FIG. 3; cited from earlier work
# [2] = tested on: acute GVHD; settings: oral gavage three times weekly, versus vehicle; FIG. 4; cited from earlier work
# [3] = tested on: IL-17A, IL-17F and IL-21 T-cell dependent cytokine secretion; test: Th17 Panel in Human PBMCs (anti-CD3 stimulation, Luminex); type: cell-based; settings: anti-CD3 coated plates, 48 hours post stimulation, supernatant, FIG. 1
# Description: High binding plates were coated with anti-CD3 (Clone UCHT-1, 0.2 ug/well) or its isotype control mIgG1 (0.2 ug/well) and incubated overnight at 4° C. Cryopreserved human PBMCs were seeded into U-bottom 96-well plates (2.4×10^5 cells/well) with 228 ul per well of culture medium (RPMI 1640, 10% HI-FBS, 1% P/S, 2 mM L-glutamine). Cells were incubated at 37° C., 5% CO2 for 1 hour prior to the addition of test compounds. Test compounds were solubilized in DMSO and further diluted to 20× with cell culture medium. Test compounds were added to the PBMCs in volumes of 12 ul in triplicate and incubated at 1 hour at 37° C., 5% CO2.
# After the 1 hour incubation, 200 ul of cells ([…]) treated with test compounds or controls were transferred to the prepared anti-CD3 coated plates and incubated at 48 hours at 37° C., 5% CO2. Consequently, the final concentrations of assay controls were 1 ug/mL anti-CD3 (agonist) or 1 ug/mL mIgG1 isotype control, and 0.1% DMSO (vehicle control). At the end of the incubation period, plates were centrifuged at 200×g for 10 minutes. Cell culture supernatants were collected and stored at −80° C. until needed for analysis. Cytokine levels in each sample were determine using Luminex methodology per the manufacturer's protocol using the Human Th17 Magnetic Bead Panel from Milipore Sigma (HTH17MAG-14K).
# Human PBMCs were treated with compound I-1 (Example 1) or vehicle control and then subjected to T cell activation mediated by anti-CD3 coated plates. 48 hours-post stimulation, IL-17A, IL-17F and IL-21 supernatant levels were quantified.
# [4] = tested on: imiquimod-induced psoriasis; test: IMQ induced psoriasis mouse model; type: in vivo
# Description: Except for the control group, all other groups received a daily topical dose of 60 mg of 5% commercially available IMQ cream on the shaved back for 7 consecutive days. The same amount of Vaseline was applied to the same areas of the animals in the negative control group.
# Vehicle and DF-6129 were dosed daily (po) for 8 days, from Day −1 to Day 7. Dosing time: 1 hour prior to IMQ application.
# The Psoriasis Area and Severity Index (PASI) scoring system was used to evaluate the severity of skin inflammation of the mouse model. Erythema, scaling, and skin thickness was scored independently from 0-4 as (daily scoring) as below:
# Animals were euthanized 4 h post last dosing on day 7 (3 h after applying with imiquimod cream). Whole Blood was collected via cardiac puncture from all group animals. Serum samples were separated by centrifugation at 4° C. at 8000 g for 5 minutes, total 70 samples. All serum samples were stored at −80° C. for IL-17 analysis.
# Animals were euthanized 4 h post last dosing on day 7 (3 h after applying with imiquimod cream) and back skin was be collected. The skin tissues were divided into two parts. One half was flash frozen and stored at −80° C. for PCR analysis (IL-17A, IL-17F, IL-22 and IL-23), the other half was fixed in 10% formalin for HE staining and scoring.
# All statistical analysis were conducted, and the level of significance was set at P<0.05. The group means and standard deviation were calculated for all measurement parameters as study designed. One-way ANOVA comparisons among the groups was performed with software SPSS 16.0.
# [5] = tested on: MCP-1 secretion from LPS-stimulated human PBMCs; test: PBMC MCP-1 HTRF Assay; type: cell-based; settings: FIG. 2
# Description: The cryopreserved PBMC cells were thawed in a 37° C. water bath immediately after taking out from liquid nitrogen storage. A sterile pipette was used to transfer the content to sterile […] centrifuge tube containing […] of complete growth medium (Gibico 1640) and centrifuge at 300×g for 10 min. Supernatant was discarded, and cell pellet was resuspended in 10 mL of complete growth media in a sterile 15 mL tube. The cells were rested for 1 h at 37° C. (1×10^6 cells/mL). The cells were spinned down at 300×g for 10 minutes after 1 h. Supernatant was discard, and cell pellet was resuspended in complete growth medium, the cells number and viability were measured by AO/PI staining. In a 384-well white plate, PBMCs at 25k cells/well (15 μl per well) were seeded with Gibico 1640 medium. The compound stock was serial diluted into 10 mM concentrations by 3-fold dilution. […]
# For MCP-1 HTRF, 2.5 μl/well MCP-1 donor antibody and […] MCP-1 acceptor antibody were added into 384 well plate, following by centrifuging at 190×g for 1 min and incubating at room temperature for 2 h. The plate was read on the Envision.
# The cryopreserved PBMC cells were thawed in a 37° C. water bath immediately after taking out from liquid nitrogen storage. […] Supernatant was discard, and cell pellet was resuspended in complete growth medium, the cells number and viability were measured by AO/PI staining. […]
# [6] = tested on: cGVHD; test: cGVHD models (LP/J→C57BL/6 sclerodermatous; C57BL/6→B10.BR); type: in vivo, mouse; settings: e.g. 3 mg/kg
# Description: Compound I-2 is dosed at various doses, e.g., 3 mg/kg, and decreases incidence and/or […] onset of Graft vs. Host Disease (GvHD) in the LP/J-C57BL/6 model of sclerodermatous cGVHD and/or the C57BL/6→B10.BR cGVHD model that develops multiorgan system disease including bronchiolar obliterans (BO).
# [7] = tested on: Graft vs. Host Disease (GvHD); test: GvHD, combination with adoptive transfer of expanded Tregs; type: in vivo, mouse; settings: in combination with adoptive transfer of expanded Tregs; e.g. 3 mg/kg
# Excerpt: It has been shown that BET inhibitors can be combined with Treg expansion therapy for treatment of diseases involving inflammatory response. Lethally irradiated (8.5 Gy) BALB/c mice received 5.5×10^6 TCD B6-CD45.1 BM cells and spleen cells from expanded (TrED) or unexpanded (TrUD) B6-FoxP3RFP donor mice adjusted to contain either […] or 1×10^6 total T cells (Copsel et al. 2019).
# [8] = tested on: Graft vs. Host Disease (GvHD); test: GvHD in irradiated female BALB/c mice engrafted with WBCs from female C57BL/6 mice; type: in vivo, mouse
# [9] = tested on: Graft vs. Host Disease (GvHD); test: GvHD, combination with CTLA4-Ig/Abatacept; type: in vivo, mouse; settings: in combination with CTLA4-Ig; e.g. 3 mg/kg
# Excerpt: It has been shown that in vivo infusion of recombinant, soluble CTLA4 fused with Ig heavy chains, as a surrogate ligand used to block CD28/CTLA4 T-cell costimulation, could prevent efficient T-cell activation and thereby reduce graft-versus-host disease (GVHD). Lethally irradiated B10.BR recipients of major histocompatibility complex disparate C57BL/6 donor grafts received intraperitoneal injections CTLA4-Ig in various doses and schedules beginning on day −1 or day 0 of bone marrow transplantation (BMT) (see Blazer et al. 1994).
compound,measurement,setting,value
COc1cc2c(cc1-c1c(C)noc1C)ncc1[nH]c(=O)n([C@H](C)c3ccccn3)c12 [I-BET151],GVHD severity (clinical score),[1],significantly reduced
same,survival rates,[1],improved
Cc1noc(C)c1-c1cnc2c(-c3ccc(C(=O)O)cc3)cn([C@@H](C)c3ccccn3)c2c1 [PLX51107],survival,[2],significantly improved
"Cn1ccn(-c2ccc(-c3cc(F)cc(-c4cccc(N5CCN(C(C)(C)C)CC5)c4)c3O)cc2Cl)c1=O [Compound I-1, 1-(3″-(4-(tert-butyl)piperazin-1-yl)-3-chloro-5′-fluoro-2′-hydroxy-[1,1′:3′,1″- terphenyl]-4-yl)-3-methyl-1,3-dihydro-2H-imidazol-2-one]",IL21 T-cell dependent cytokine secretion,[3],inhibited
same,IL-17A T-cell dependent cytokine secretion,[3],inhibited
same,IL-17F T-cell dependent cytokine secretion,[3],inhibited
same,mRNA levels of IL-17A from the back skin,"[4]; 10 mg/kg, compared with vehicle treatment alone, FIG. 7A",significantly reduced
same,mRNA levels of IL-22 from the back skin,"[4]; 10 mg/kg, compared with vehicle treatment alone, FIG. 7B",significantly reduced
same,mRNA levels of IL-23 from the back skin,"[4]; 10 mg/kg, compared with vehicle treatment alone, FIG. 7C",significantly reduced
same,serum IL-17 levels,"[4]; compared to vehicle treatment alone, ELISA, day 7, FIG. 6",significantly reduced
same,total psoriasis (PASI) score,"[4]; daily dosing po, compared to vehicle treatment, FIG. 5A",significantly reduced
same,erythema (PASI),"[4]; daily dosing po, compared to vehicle treatment, FIG. 5B",significant decreases
same,scaling (PASI),"[4]; daily dosing po, compared to vehicle treatment, FIG. 5C",significant decreases
same,skin thickening (PASI),"[4]; daily dosing po, compared to vehicle treatment, FIG. 5D",significant decreases
same,MCP secretion from LPS-stimulated human PBMCs,[5],inhibited
"Cc1cc(-c2ccc(-n3ccn(C)c3=O)c(Cl)c2)c(O)c(-c2cccc(N3CCN(C(C)(C)C)CC3)c2)n1 [Compound I-2, 1-(4-(2-(3-(4-(tert-butyl)piperazin-1-yl)phenyl)-3-hydroxy-6-methylpyridin-4-yl)-2-chlorophenyl)-3-methyl-1,3-dihydro-2H-imidazol-2-one]",incidence and/or onset of GvHD (cGVHD),[6]; in combination with Ruxolitinib,decreases incidence and/or delays onset
same,incidence and/or onset of GvHD (cGVHD),[6]; monotherapy,decreases incidence and/or delayes onset
same,incidence and/or onset of GvHD,[7],decreases incidence and/or delays of onset
same,incidence and/or onset of GvHD,"[8]; in combination with Ruxolitinib, compared to Ruxolitinib treatment alone, e.g. 3 mg/kg",decreases incidence and/or delays of onset
same,incidence and/or onset of GvHD,"[8]; monotherapy, various doses e.g. 3 mg/kg",decreases incidence and/or delays onset
same,incidence and/or onset of GvHD,[9],decreases incidence and/or delays onset
